# From patent US20260226046A1 (JIANGSU HANSOH PHARMACEUTICAL GROUP CO., LTD., priority 2023, published 2026)
# Columns and labels:
# [1] = Thermodynamic stability experiment of crystal form (slurrying in solvents); format: physicochemical
# Experimental: Through polycrystalline screening test, the relatively thermodynamically stable crystal form of salt was found.
# The mixture was slurried at 40 degrees for 2 days, and centrifuged, and the solid was oven-dried in vacuo at 40 degrees overnight, and then XRD and other corresponding characterizations were performed.
# [2] = Solubility determination of crystal form C of tromethamine salt; format: physicochemical; conditions: 37 °C, thermodynamic from solid
# Experimental: 1 to 2 mg of compound 28 was weighed into a 1.5 mL liquid phase vial, then 1 mL of pH buffer, artificial simulated gastric fluid (FaSSGF), artificial fasted-state simulated intestinal fluid (FaSSIF), artificial non-fasted-state simulated intestinal fluid (FeSSIF), and pure water were respectively added, and the mixture was placed on a constant temperature oscillator overnight at a temperature of 37 degrees. After 24 h, the sample solution was filtered with a 0.45 μm mixed water fiber filter membrane and then the filtrate was taken. The content was tested by HPLC. For the HPLC detection method, please refer to the solution stability analysis method in Section 1.2.
structure (smiles),measurement,setting,value
O=C(O)c1ccc2nc(CN3CCC(c4cccc5c4OC(c4ccc(Cl)cc4F)C=C5)CC3)n(CC3CCO3)c2c1 (centres unmarked),XRD after slurrying for 2 days,"[1]; EA 200 ul, 40 degrees",Crystal form C
same,XRD after slurrying for 2 days,"[1]; EtOH 200 ul, 40 degrees",Crystal form C
same,XRD after slurrying for 2 days,"[1]; Heptane 200 ul, 40 degrees",Crystal form C
same,XRD after slurrying for 2 days,"[1]; IPA 200 ul, 40 degrees",Crystal form C
same,XRD after slurrying for 2 days,"[1]; IPAC 200 ul, 40 degrees",Crystal form C
same,XRD after slurrying for 2 days,"[1]; IPE 200 ul, 40 degrees",Crystal form C
same,XRD after slurrying for 2 days,"[1]; MTBE 200 ul, 40 degrees",Crystal form C
same,XRD after slurrying for 2 days,"[1]; hexane 200 ul, 40 degrees",Crystal form C
same,Stability of crystal form (in words),[1]; slurried in solvents at 40 degrees for 2 days,very stable
same,Phenomenon after slurrying for 2 days,"[1]; water 200 ul, 10 mg, 40 degrees",Dissolved clarification
same,solubility at 24 h,"[2]; aqueous buffer, USP Buffer pH 7.4, 37 degrees",254 µg/mL
same,solubility at 24 h,"[2]; FaSSIF, 37 degrees",478 µg/mL
same,solubility at 24 h,"[2]; FeSSIF, 37 degrees",756 µg/mL
same,solubility at 24 h,"[2]; water, H2O, 37 degrees",66.4 µg/mL
